Measurements as given in ChEMBL document CHEMBL5058646 (2022).

How the values were obtained:
[1] = target: Phosphorylase b kinase gamma catalytic chain, liver/testis isoform (Homo sapiens) (UniProt P15735); assay: PHKG2 SGC Tm panel (DSF); conditions: Compound concentration 20.0 uM
[2] = target: SRSF protein kinase 1 (Homo sapiens) (UniProt Q96SB4); assay: SRPK1 SGC Tm panel (DSF); conditions: Compound concentration 20.0 uM
[3] = target: Histamine H1 receptor (Homo sapiens) (UniProt P35367); conditions: Compound concentration 10.0 uM
[4] = target: T1, Zinc finger and BTB domain-containing protein 10 (Homo sapiens) (UniProt Q96DT7); conditions: SUD4, Compound concentration 1.0 uM
T1 sequence (whole entry): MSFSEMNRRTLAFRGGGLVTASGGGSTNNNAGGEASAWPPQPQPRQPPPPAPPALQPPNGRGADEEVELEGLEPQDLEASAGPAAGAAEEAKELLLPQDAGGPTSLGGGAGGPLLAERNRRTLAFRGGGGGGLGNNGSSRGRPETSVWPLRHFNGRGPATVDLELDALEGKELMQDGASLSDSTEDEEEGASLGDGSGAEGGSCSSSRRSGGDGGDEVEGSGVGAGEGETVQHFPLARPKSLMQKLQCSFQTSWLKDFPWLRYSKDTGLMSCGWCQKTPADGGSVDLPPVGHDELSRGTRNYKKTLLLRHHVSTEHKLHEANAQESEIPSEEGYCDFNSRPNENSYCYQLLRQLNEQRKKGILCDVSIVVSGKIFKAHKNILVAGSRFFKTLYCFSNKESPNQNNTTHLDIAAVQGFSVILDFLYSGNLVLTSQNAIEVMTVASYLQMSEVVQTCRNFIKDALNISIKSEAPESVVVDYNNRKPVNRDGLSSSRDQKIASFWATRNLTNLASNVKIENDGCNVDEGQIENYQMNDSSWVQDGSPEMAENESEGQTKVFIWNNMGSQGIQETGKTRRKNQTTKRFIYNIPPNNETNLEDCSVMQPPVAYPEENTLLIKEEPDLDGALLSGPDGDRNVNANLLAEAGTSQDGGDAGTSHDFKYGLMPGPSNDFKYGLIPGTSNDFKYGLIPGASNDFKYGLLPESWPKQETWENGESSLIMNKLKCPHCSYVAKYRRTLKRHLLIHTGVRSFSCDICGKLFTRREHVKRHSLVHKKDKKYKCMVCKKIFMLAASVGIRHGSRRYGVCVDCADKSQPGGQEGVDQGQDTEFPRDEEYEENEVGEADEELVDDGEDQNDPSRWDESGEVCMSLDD

[5] = target: Serine/threonine-protein kinase Nek2 (Homo sapiens) (UniProt P51955); assay: NEK2 SGC Tm panel (DSF); conditions: Compound concentration 20.0 uM
[6] = target: Histamine H3 receptor (Homo sapiens, UniProt Q9Y5N1); assay: GPCRScan assay: inhibition of H3; set-up: radioligand conc. used [nm] 0.5 – 1.0, parental cells HEK Flp-In
[7] = target: Alpha-2A adrenergic receptor (Homo sapiens) (UniProt P08913); conditions: Compound concentration 10.0 uM
[8] = target: Beta-3 adrenergic receptor (Homo sapiens, UniProt P13945); assay: GPCRScan assay: inhibition of Beta3; set-up: radioligand conc. used [nm] 0.2 – 0.5, parental cells HEK Flp-In
[9] = target: Serine/threonine-protein kinase pim-3 (Homo sapiens) (UniProt Q86V86); assay: PIM3 SGC Tm panel (DSF); conditions: Compound concentration 20.0 uM
[10] = target: T2, Zinc finger and BTB domain-containing protein 9 (Homo sapiens) (UniProt Q96C00); conditions: OCI-Ly1, Compound concentration 1.0 uM
T2 sequence (whole entry): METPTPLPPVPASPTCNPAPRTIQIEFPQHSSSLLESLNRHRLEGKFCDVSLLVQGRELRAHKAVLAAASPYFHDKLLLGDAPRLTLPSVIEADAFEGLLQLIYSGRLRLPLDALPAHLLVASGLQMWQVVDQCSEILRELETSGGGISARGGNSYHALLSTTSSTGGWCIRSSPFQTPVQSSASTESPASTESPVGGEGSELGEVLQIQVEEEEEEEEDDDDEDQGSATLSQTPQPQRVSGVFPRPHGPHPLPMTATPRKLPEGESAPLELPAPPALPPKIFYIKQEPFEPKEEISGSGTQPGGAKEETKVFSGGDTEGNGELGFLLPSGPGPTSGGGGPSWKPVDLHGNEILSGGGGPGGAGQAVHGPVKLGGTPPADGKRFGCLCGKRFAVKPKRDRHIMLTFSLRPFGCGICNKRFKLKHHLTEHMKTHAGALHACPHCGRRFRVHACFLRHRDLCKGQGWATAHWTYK

[11] = target: Serine/threonine-protein kinase PAK 4 (Homo sapiens) (UniProt O96013); assay: PAK4 SGC Tm panel (DSF); conditions: Compound concentration 20.0 uM
Chain of Serine/threonine-protein kinase PAK 4 (Homo sapiens) (O96013 whole entry, looked up): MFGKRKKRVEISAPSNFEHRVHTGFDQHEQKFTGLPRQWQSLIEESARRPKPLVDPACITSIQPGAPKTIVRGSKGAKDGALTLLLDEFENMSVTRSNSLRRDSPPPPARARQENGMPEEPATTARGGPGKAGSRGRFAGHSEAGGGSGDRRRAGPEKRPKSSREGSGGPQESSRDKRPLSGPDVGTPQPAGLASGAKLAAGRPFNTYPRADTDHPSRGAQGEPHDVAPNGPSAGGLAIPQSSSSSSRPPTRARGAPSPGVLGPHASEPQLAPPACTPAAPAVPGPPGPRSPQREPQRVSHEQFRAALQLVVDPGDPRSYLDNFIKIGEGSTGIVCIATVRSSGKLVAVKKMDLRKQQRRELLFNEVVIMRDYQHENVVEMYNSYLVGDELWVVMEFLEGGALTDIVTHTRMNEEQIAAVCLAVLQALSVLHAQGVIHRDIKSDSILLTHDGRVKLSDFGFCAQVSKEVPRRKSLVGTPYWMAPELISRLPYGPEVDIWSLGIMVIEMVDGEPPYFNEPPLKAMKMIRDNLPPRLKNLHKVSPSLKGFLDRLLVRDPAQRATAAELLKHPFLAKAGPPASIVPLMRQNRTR

Chain of Beta-3 adrenergic receptor (P13945 whole entry): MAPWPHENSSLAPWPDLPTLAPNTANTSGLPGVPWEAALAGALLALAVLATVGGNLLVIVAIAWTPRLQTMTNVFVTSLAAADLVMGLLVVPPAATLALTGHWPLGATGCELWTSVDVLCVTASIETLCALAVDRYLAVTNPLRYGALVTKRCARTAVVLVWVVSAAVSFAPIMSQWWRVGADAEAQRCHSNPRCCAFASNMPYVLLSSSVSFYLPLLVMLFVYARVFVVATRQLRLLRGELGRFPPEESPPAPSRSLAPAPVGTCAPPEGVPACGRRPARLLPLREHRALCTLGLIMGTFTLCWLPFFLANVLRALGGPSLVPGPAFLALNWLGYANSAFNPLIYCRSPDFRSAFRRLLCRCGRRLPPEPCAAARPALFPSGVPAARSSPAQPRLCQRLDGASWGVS
Chain of Histamine H3 receptor (Q9Y5N1 whole entry): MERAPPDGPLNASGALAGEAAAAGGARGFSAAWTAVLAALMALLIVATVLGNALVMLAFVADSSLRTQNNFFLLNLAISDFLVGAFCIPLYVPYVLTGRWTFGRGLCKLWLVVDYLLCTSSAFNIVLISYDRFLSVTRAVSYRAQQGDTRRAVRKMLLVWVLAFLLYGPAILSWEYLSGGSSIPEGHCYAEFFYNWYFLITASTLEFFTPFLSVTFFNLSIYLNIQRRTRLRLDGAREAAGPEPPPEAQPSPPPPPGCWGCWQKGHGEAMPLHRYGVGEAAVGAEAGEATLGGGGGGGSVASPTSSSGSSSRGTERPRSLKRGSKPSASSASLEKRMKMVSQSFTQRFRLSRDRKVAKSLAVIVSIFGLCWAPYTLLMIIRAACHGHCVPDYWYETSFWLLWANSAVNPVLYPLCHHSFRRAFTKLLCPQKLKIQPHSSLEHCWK
Chain of Alpha-2A adrenergic receptor (Homo sapiens) (P08913 whole entry): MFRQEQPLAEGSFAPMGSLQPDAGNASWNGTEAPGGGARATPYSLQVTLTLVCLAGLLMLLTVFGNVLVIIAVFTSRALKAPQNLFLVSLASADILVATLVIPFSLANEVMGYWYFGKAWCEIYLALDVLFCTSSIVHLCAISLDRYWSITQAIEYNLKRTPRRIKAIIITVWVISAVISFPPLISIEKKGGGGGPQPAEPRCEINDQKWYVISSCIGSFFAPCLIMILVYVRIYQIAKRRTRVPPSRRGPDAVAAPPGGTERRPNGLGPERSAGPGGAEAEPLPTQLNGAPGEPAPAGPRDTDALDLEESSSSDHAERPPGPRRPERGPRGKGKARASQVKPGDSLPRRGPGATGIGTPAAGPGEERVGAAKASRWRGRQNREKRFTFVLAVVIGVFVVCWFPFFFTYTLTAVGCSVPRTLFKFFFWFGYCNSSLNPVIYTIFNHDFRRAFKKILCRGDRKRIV
Chain of Histamine H1 receptor (Homo sapiens) (P35367 whole entry, the tested form may be a part): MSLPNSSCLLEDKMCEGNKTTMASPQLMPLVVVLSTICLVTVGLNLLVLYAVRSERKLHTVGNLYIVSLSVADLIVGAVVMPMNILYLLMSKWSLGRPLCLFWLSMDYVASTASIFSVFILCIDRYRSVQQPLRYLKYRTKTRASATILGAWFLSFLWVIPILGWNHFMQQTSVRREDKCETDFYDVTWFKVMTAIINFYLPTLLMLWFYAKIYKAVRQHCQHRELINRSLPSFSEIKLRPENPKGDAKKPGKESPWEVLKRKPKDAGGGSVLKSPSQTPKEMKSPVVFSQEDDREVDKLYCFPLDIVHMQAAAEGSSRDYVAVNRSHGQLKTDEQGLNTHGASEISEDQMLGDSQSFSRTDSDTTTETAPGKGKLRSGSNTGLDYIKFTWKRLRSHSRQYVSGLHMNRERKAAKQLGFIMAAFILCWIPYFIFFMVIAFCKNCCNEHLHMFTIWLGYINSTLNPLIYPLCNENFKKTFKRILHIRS
Chain of SRSF protein kinase 1 (Homo sapiens) (Q96SB4 whole entry): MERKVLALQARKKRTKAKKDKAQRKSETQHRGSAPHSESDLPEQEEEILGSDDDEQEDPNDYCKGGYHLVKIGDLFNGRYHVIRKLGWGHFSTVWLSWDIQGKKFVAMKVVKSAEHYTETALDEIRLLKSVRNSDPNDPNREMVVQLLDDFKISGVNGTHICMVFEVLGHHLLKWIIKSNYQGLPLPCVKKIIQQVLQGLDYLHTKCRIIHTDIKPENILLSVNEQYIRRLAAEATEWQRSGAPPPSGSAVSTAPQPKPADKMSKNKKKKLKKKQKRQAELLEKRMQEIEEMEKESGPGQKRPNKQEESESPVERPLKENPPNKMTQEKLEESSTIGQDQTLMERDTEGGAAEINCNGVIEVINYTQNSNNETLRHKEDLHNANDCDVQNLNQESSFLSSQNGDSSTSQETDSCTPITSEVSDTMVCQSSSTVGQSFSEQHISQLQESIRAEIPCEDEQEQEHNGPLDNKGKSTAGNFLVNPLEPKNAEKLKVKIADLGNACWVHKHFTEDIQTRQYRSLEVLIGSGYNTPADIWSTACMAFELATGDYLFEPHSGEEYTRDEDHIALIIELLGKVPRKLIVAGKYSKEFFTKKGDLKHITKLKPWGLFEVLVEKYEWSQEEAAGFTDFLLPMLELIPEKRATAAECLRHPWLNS
Chain of Serine/threonine-protein kinase Nek2 (Homo sapiens) (P51955 whole entry): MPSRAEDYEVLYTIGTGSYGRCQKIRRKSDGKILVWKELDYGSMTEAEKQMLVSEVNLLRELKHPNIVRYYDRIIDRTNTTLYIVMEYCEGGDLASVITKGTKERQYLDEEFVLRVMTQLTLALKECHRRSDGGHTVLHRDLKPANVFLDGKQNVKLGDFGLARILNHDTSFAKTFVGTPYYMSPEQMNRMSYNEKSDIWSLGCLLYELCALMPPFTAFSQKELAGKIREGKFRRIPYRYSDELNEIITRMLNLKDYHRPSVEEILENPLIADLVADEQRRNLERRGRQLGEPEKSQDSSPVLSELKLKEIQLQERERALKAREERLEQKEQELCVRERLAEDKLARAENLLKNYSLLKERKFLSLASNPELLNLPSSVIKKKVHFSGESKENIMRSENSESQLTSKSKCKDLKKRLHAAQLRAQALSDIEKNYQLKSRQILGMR
Chain of Phosphorylase b kinase gamma catalytic chain, liver/testis isoform (Homo sapiens) (P15735 whole entry, looked up, canonical isoform): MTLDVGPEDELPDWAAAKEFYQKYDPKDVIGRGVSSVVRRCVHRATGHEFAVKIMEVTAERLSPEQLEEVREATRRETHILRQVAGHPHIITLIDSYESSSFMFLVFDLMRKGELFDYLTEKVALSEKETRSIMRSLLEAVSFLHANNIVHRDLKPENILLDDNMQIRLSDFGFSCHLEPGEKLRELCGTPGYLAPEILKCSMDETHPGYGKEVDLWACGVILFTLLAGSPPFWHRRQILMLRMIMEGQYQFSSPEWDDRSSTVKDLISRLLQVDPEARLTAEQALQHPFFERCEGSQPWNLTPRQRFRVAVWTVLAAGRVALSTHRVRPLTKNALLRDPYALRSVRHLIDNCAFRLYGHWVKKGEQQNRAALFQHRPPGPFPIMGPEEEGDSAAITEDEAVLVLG

With `C[C@@H]1CN(c2ncc(Cl)c(Nc3ccc4c(c3)n(CCC(C)(C)O)c(=O)n4C)n2)C[C@H](C)C1(F)F` the Tm [1] was 46 °C, the Tm [2] was 45 °C and the inhibition [3] was 10.3%. The LogFC [4] was 0.0283, the Tm [5] was 40 °C and the Ki ([6]; read-out: Ki) was 2330 nM. It also gave a Ki ([6]; read-out: pKi (converted)) of 2040 nM, an inhibition [7] of 14% and a Ki ([8]; read-out: Ki) of 3.99 µM. It also gave a Ki ([8]; read-out: pKi (converted)) of 3.89 µM, a Tm [9] of 40 °C and a LogFC [10] of -0.0251. It also gave a Tm [11] of 46 °C.
